Source: US20230322735A1, “AZETIDINYL TRYPTAMINES AND METHODS OF TREATING PSYCHIATRIC DISORDERS” (priority 2020, published 2023)
Structures can show the parent of a compound that is named as a salt. Where two headings read alike, the source gives them in different places.

Key:
[1] = molecular target: T1, 5-HT2A receptor (Homo sapiens, UniProt P28223); experiment: FLIPR Ca2+ flux agonist assay at 5-HT2A (HEK293); format: cell-based
T1 construct: host or cells: HEK293
Description: (§1) A solution of 250 mM probenecid in 1 mL FLIPR assay buffer was prepared fresh. This was combined with a fluorescent dye (Fluo-4 Direct™) to make a final assay concentration of 2.5 mM. […] The fluorescent dye was then added to the assay plate along with assay buffer to a final volume of 40 μL. The cell plate was incubated for 50 min at 37° C. and 5% CO2 and placed into the FLIPR Tetra along with the compound plate. 10 μL of references and compounds were then transferred from the compound plate into the cell plate and the fluorescent signal was read.

[2] = molecular target: T2, 5-HT2B receptor (Homo sapiens, UniProt P41595); experiment: FLIPR Ca2+ flux agonist assay at 5-HT2B (HEK293); format: cell-based; settings: for 5-HT2B % Act @ Max Dose: Ca2+ flux, agonist mode, HEK293
T2 construct: host or cells: HEK293
Description: as §1

[3] = molecular target: T3, human 5-HT2C receptor (Homo sapiens, UniProt P28335); experiment: cell-based; settings: Ca2+ flux, agonist mode
T3 sequence (P28335 33-458): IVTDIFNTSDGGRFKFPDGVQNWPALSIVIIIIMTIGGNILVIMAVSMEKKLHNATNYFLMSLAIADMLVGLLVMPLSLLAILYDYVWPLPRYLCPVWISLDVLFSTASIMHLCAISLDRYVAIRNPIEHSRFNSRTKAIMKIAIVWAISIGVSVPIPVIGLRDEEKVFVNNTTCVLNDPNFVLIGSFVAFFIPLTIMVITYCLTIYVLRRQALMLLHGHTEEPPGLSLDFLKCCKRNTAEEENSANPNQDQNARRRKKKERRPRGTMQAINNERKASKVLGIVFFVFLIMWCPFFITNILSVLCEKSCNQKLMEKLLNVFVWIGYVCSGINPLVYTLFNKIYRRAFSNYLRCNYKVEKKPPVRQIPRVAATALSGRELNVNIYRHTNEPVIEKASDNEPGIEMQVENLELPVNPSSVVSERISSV

[4] = molecular target: T4, 5-HT1A receptor (Homo sapiens, UniProt P08908); experiment: FLIPR Ca2+ flux agonist assay at 5-HT1A (CHO cells); format: cell-based; settings: for 5-HT1A % Act @ Max Dose: Ca2+ flux, agonist mode, CHO cells; for fold more potent at 5-HT1A than dimethyl (and methylethyl) counterparts: Ca2+ flux EC50 compared with DMT/MET, psilocin/4-HO-MET, 5-MeO-DMT
T4 construct: host or cells: CHO cells
T4 sequence (P08908 1-422): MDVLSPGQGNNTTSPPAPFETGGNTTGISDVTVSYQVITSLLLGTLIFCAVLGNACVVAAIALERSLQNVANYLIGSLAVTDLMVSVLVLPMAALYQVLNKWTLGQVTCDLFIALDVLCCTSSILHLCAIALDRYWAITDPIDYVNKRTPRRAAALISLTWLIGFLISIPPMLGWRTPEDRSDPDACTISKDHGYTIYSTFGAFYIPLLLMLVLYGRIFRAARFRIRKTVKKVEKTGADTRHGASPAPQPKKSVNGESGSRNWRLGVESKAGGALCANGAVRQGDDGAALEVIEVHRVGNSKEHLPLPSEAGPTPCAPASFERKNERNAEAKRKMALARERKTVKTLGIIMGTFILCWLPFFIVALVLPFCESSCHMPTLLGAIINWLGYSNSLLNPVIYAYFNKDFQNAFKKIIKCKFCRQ
Description: as §1

[5] = Stability in rat brain homogenate; settings: for half-life at 1 μM: male, Sprague Dawley, rat, rat brain homogenate; for % Compound Remaining (after 120 min) / t1/2: rat brain homogenate (male Sprague Dawley), 1 μM, 37° C.
[6] = Stability in mouse brain homogenate; settings: for half-life at 1 μM: male, CD-1, mouse, mouse brain homogenate; for % Compound Remaining (after 120 min) / t1/2: mouse brain homogenate (male CD-1), 1 μM, 37° C.
[7] = Metabolic stability in human liver microsomes (HLM); settings: for half-life at 1 μM / microsomal CLint at 1 μM: both, human, pooled human liver microsomes, pH 7.4; for metabolic stability in HLM compared with dimethyl counterpart: vs DMT, psilocin, 5-MeO-DMT respectively; for t1/2: HLM, 1 μM test compound, 0.50 mg protein/mL, NADPH, 37° C., 60 min
[8] = tested on: C57BL/6 mice; experiment: Head twitch response (HTR) in mice; format: in vivo, mouse; settings: SC; for maximal effect in the HTR assay: maximum over doses tested
[9] = Chemical stability of the product on storage and analysis; format: physicochemical; settings: storage and handling
Description: Note: The product 2 is unstable and should be stored frozen, protected from light, and under inert gas. If stored properly, stability has been confirmed by qNMR for at least 1 month.
A mixture of 3-(2-(azetidin-1-yl)ethyl)-1H-indol-4-ol (2, 50 mg, 231.18 μmol, 1 eq) and pyridine (23.77 mg, 300.54 μmol, 24.26 μL, 1.3 eq) in DCM (1 mL) was cooled to 0° C. Then acetic anhydride (25.96 mg, 254.30 μmol, 23.82 μL, 1.1 eq) was added dropwise at 0° C. and the resulting mixture was stirred at 25° C. for 1 h. At this time, the solvent was removed and the residue was purified by prep-HPLC (column=Waters Xbridge BEH C18 (100*30 mm, 10 μm); mobile phase=water(NH4HCO3)-ACN, B %=5%-40%; 10 min run time) to provide 3-(2-(azetidin-1-yl)ethyl)-1H-indol-4-yl acetate (4) as a white solid (20 mg, 33% yield). ^1H NMR (400 MHz, DMSO-d6) δ 11.01 (br s, 1H), 7.22 (d, J=8.0 Hz, 1H), 7.11 (d, J=1.6 Hz, 1H), 7.02 (t, J=8.0 Hz, 1H), 6.64 (d, J=7.6 Hz, 1H), 3.09 (t, J=6.8 Hz, 4H), 2.57-2.54 (m, 4H), 2.32 (s, 3H), 1.96-1.90 (m, 2H); LCMS (RT=0.983 min, MS calc.: 258.14, [M+H]+=259.1).

[10] = Pro-drug conversion to Compound 2 after administration to an animal; format: in vivo; settings: when administered to an animal, for example a human
[11] = Ca2+ flux, agonist mode, HEK293
[12] = Ca2+ flux, agonist mode, HEK293, read-out: 5-HT2A EC50

T1 sequence (P28223 whole entry): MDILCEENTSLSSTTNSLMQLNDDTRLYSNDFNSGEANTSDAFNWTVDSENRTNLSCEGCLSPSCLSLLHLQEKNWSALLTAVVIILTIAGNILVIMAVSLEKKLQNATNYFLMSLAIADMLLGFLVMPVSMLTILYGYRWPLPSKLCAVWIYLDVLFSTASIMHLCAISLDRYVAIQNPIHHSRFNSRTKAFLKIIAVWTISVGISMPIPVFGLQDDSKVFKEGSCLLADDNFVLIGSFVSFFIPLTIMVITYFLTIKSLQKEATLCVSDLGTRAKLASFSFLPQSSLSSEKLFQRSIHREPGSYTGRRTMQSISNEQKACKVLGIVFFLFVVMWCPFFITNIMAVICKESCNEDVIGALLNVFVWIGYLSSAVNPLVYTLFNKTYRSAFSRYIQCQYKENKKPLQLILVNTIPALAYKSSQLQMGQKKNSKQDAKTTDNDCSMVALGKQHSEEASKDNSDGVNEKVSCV
T2 sequence (P41595 whole entry): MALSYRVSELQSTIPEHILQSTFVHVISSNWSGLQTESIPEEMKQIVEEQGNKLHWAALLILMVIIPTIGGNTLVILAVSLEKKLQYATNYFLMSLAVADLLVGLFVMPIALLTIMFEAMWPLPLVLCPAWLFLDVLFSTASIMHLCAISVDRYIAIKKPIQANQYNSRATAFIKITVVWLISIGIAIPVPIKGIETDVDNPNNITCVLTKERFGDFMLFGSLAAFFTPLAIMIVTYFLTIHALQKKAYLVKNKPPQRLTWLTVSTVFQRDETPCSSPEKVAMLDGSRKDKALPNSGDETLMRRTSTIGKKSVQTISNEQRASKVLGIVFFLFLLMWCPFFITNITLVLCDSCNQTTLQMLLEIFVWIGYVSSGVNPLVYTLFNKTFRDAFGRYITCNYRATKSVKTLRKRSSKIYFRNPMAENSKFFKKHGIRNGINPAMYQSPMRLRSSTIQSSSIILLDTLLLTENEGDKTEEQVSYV

Row | Compound | 5-HT2A % Act @ Max Dose [1, 11] [%] | EC50 [2] [nM] | 5-HT2B % Act @ Max Dose [2] [%] | EC50 [4] [nM] | 5-HT1A % Act @ Max Dose [4] [%] | % Compound Remaining (after 120 min) [5] [%] | % Compound Remaining (after 120 min) [6] [%] | microsomal CLint at 1 μM [7] [µL/min/mg] | t1/2 [5] [h] | t1/2 [6] [h] | t1/2 [7] [h] | other results
1 | CCN(C)CCc1c[nH]c2ccccc12 [MET, N-ethyl-2-(1H-indol-3-yl)-N-methylethan-1-amine, reference compound] | 36.2 | > 100000 | 22.5 | 89400 | 73.6 | – | – | – | – | – | – | EC50 [1]: 17.1 nM; 5-HT2C % Act @ Max Dose [3]: 89.7%; EC50 [3]: 28.3 nM
2 | COc1ccc2[nH]cc(CCN3CCC3)c2c1 [Compound 3, 3-(2-(azetidin-1-yl)ethyl)-5-methoxy-1H-indole fumarate] | 99.3 | 274 | 35.0 | 21.1 | 112 | 98 | 103.1 | < 9.6 | – | – | – | EC50 [1, 12]: 7.15 nM; fold more potent at 5-HT1A than dimethyl (and methylethyl) counterparts [4]: > 10 fold; stability in rat brain homogenate (in words) [5]: good stability; half-life at 1 μM [5]: > 4.82 h; stability in mouse brain homogenate (in words) [6]: good stability; half-life at 1 μM [6]: > 4.82 h; half-life at 1 μM [7]: > 2.42 h; metabolic stability in HLM compared with dimethyl counterpart [7]: greater metabolic stability
3 | COc1ccc2[nH]cc(CCN(C)C)c2c1 [Compound 5-MeO-DMT, reference compound] | 106 | – | 17.6 | – | 100 | 0.3 | 91.2 | 102 | 0.24 | >4.818 | 0.227 | –
4 | CCN(C)CCc1c[nH]c2cccc(O)c12 [Compound 4-HO-MET, 3-(2-(ethyl(methyl)amino)ethyl)-1H-indol-4-ol, reference compound] | 103 | > 10000 | 1.09 | 14700 | 73.0 | – | – | – | – | – | – | EC50 [1]: 15.1 nM; Average HTR Over 20-min Test ([8]; dose 0.1 mg/kg): 9.50; Average HTR Over 20-min Test ([8]; dose 1 mg/kg): 20.83; Average HTR Over 20-min Test ([8]; dose 10 mg/kg): 11.33; maximal effect in the HTR assay [8]: 20.8 head twitches/20 min
5 | CC(=O)Oc1cccc2[nH]cc(CCN3CCC3)c12 [Compound 4, 3-(2-(azetidin-1-yl)ethyl)-1H-indol-4-yl acetate] | – | – | – | – | – | – | – | – | – | – | – | stability compared with Compound 2 [9]: more stable to oxidation than Compound 2; hydrolysis of the ester to Compound 2 as active metabolite [10]: rapidly hydrolyzed
6 | c1ccc2c(CCN3CCC3)c[nH]c2c1 [Compound 1, 3-(2-(azetidin-1-yl)ethyl)-1H-indole fumarate] | 73.2 | 917 | 22.6 | 745 | 135 | 91.9 | 111.3 | 12.4 | – | – | – | EC50 [1, 12]: 90.4 nM; fold more potent at 5-HT1A than dimethyl (and methylethyl) counterparts [4]: > 50 fold; Average HTR Over 20-min Test ([8]; dose 0.1 mg/kg): 5.00; Average HTR Over 20-min Test ([8]; dose 1 mg/kg): 2.17; Average HTR Over 20-min Test ([8]; dose 10 mg/kg): 1.00; stability in rat brain homogenate (in words) [5]: good stability; half-life at 1 μM [5]: > 4.82 h; stability in mouse brain homogenate (in words) [6]: good stability; half-life at 1 μM [6]: > 4.82 h; half-life at 1 μM [7]: 1.86 h; metabolic stability in HLM compared with dimethyl counterpart [7]: greater metabolic stability
7 | CN(C)CCc1c[nH]c2ccccc12 [DMT, N,N-dimethyltryptamine, reference compound] | 93.4 | – | 10.4 | – | 68.1 | 0.0 | 0.0 | 199 | 0.085 | 0.107 | 0.117 | –
8 | COc1cc(CC(C)N)c(OC)cc1I (stereo not shown) [DOI, 4-iodo-2,5-dimethoxyamphetamine, reference compound] | – | – | – | – | – | – | – | – | – | – | – | maximal effect in the HTR assay [8]: 35.6 head twitches/20 min
9 | O=P(O)(O)Oc1cccc2[nH]cc(CCN3CCC3)c12 [Compound 5, 3-(2-(azetidin-1-yl)ethyl)-1H-indol-4-yl dihydrogen phosphate] | – | – | – | – | – | – | – | – | – | – | – | stability compared with Compound 2 [9]: more stable than Compound 2; hydrolysis of the ester to Compound 2 as active metabolite [10]: rapidly hydrolyzed
10 | CN(C)CCc1c[nH]c2cccc(O)c12 [Psilocin, psilocin, reference compound] | – | – | 1.44 | 5260 | 66.4 | 46.1 | 97.6 | 127 | 1.913 | >4.818 | 1.828 | –
